Measurements: patent US20250034510A1, “SYSTEMS, DEVICES, AND METHODS FOR BIOLOGICAL MATERIAL RESTORATION AND/OR CRYOPRESERVATION” (Oregon State University, priority 2023, published 2025)
Values joined by “and” are separate entries in the source; they are usually repeats but may differ in a detail not shown here. Identical values can stand only once.

Assays:
[1] = test system: nucleus pulposus (NP) cells; assay: Cytotoxicity of CPA 1 on NP cells in monolayer culture (LIVE/DEAD assay); format: cell-based, bovine; details: PG as part of CPA 1 (FIG. 13)
Text: In this example, NP cells were isolated following a protocol adapted and modified from Wiseman et al. (Wiseman, M. A., H. L. Birch, M. Akmal, and A. E. Goodship, Spine, 2005, 30:505-11). Two freshly skinned skeletally mature bovine tails were obtained from a local abattoir, disinfected for five minutes in a 1% Betadine solution (RC3955, VWR International, PA), and allowed to dry in a sterile environment for ten minutes. Muscle and fat tissue were removed from each tail, exposing the IVDs. The isolated IVDs were wrapped with a sterile gauze soaked in 0.9% sodium chloride (IC102892.5, VWR International, PA) and 55 mM sodium citrate (BDH9288, VWR International, PA) while awaiting dissection.
NP tissue was removed with a scalpel, cut into 4 mm^2 pieces, and digested in a humidified cell incubator at 37° C. and 5% CO2. […]
In this example, NP cells were cultured in 6 well-plates to elucidate the cytotoxicity of CPA 1 composed of 80% DMEM (D6046, Sigma), 10% DMSO (IC0219605590, VWR International, PA), and % 10 propylene glycol (PG) (P4347, Sigma, MO). […] Cells were stained with a fluorescent LIVE/DEAD™ assay (L3224, ThermoFisher, MA) and scanned using Keyence BZ-X700 fluorescence microscope (Oregon State University, OR). […]

[2] = DMSO penetration in IVDs tracked by CT; format: in vitro ADME, bovine; details: for DMSO saturation level: free swelling IVD without compression, 10% DMSO
Protocol: In this example, the transport of DMSO in free-swelling IVDs was assessed. Three skeletally mature Black Angus bovine IVDs were incubated in 10% DMSO for three days and CT-scanned at 0, 24, 56, and 72 hours. DMSO penetration was tracked using a Toshiba Aquilion 64-slice Computed Tomography (CT) unit provided by the Carlson College of Veterinary Medicine at Oregon State University. Acquisition parameters were set to 120 kVp, 240 FoV, 0.6 pitch, and 250 mA.
Materialize Mimics® 21.0 was used to segment the IVD's soft tissue (AF and NP). A code was developed in MATLAB® 9.9 to perform a Gaussian curve-fitting analysis of the segmented scans, estimating the mean signal intensity (FIG. 12).
The correlation in equation 1 was developed To relate mean signal intensity to penetration %, the mean signal intensity was normalized for the sample of interest (IVDn) to the intensities of both a fresh IVD (IVD0) and a fully-saturated IVD (IVDF*).
The effectiveness of PrimeGrowth™ (n=3) and compression (n=3) in improving the transport of DMSO and decreasing cell CPA exposure time were also assessed. PrimeGrowth™ is designed to clear blood clots in the CEP, improving transport through its pores and channels. Axial compression could enhance the convection transport of fluids in the IVD. IVDs treated with PrimeGrowth™ were incubated in a 30 mL Isolation Medium for one hour and rinsed in an equal volume of Neutralization Medium for two minutes. In a separate protocol, bovine IVDs were compressed in a custom-built bioreactor for four hours under a sine-wave load (0 MPa to 2.5 MPa at 0.1 Hz) and soaked in 10% DMSO. DMSO penetration in IVDs was tracked via CT scans compared to a control group (n=3) soaking in 10% DMSO. CT scans were acquired at 0, 5, 8, 24, and 36 hours.

Row | time required for DMSO to fully saturate the disc ([2]; IVD compressed before soaking in 10% DMSO) [h] | time required to reach a 75% level of penetration ([2]; IVD without compression) [h] | time to reach equilibrium with the surrounding solution ([2]; IVD without compression (FIG. 14)) [h] | DMSO penetration ([2]; compression then free swelling, in 3 to 4 hours) | decrease of the time required for full penetration by compression (improvement) ([2]; compression vs no compression) | DMSO penetration ([2]; compression, at 3 hours) [%] | DMSO saturation level ([2]; after 24 hours) [%] | DMSO saturation level ([2]; by 72 hours of incubation) [%] | mean DMSO penetration % compared to time 0 (one-way ANOVA, p<0.05) ([2]; free-swelling IVDs, after 24 hours of incubation) | SMILES | effect on cell viability in a monolayer cell culture [1]
1 | – | – | – | – | – | – | – | – | – | CC(O)CO (stereo not shown) [PG, propylene glycol] | devastating for cell viability
2 | 3 | 72 | 72 | about 90% | 96% and 95% | 97 | 50 | 75 | significantly different | C[S+](C)[O-] [DMSO, dimethylsulfoxide] | –
